Data taken from patent US20020127182A1, “Paramagnetic metal ion-based macrocylic magnetization transfer contrast agents and method of use” (Board of Regents, The University of Texas System, priority 2000, published 2002).

Columns and labels:
Format in all cases: physicochemical
[1] = 500 MHz 1H NMR spectrum of Eu(2)^- complex, exchangeable sites; conditions: aqueous, pH 7.4, 25° C.
From the text: Two sites in the complex (denoted by the symbols *) are chemically exchangeable with bulk water (denoted by the symbol ? ): one is from Eu^3+-bound water at about 57 ppm, and another is from four equivalent amide protons on the pendent arms at about −6 ppm.

[2] = MT profiles of Eu(2)^- complex versus pH and saturation power; conditions: saturating bound water at about 57 ppm; 62.5 mM, 2 s, 41 db
Protocol: In a seventh experiment, MT profiles were obtained for 62.5 mM aqueous solutions of the Eu(2)^− lanthanide-macrocylic complex. A saturating RF pulse of 2 s at the resonance frequency of bound water or amide protons, with a power of 41 db, was applied to a 3.5 cm volume coil. […] The same set of data was plotted versus the bound water lifetime, τM^298, or the exchange limiting regime, Δω•τM, as shown in FIG. 17. The largest MT occurs for a Δω•τM ranging from about 12 to about 17, and optimally about 15.

[3] = pH dependence of bound water and amide proton lifetimes τM^298 of Eu(2)^- by variable temperature 1H NMR line width fitting
Protocol: In a sixth series of experiments, the pH dependence of the bound water (FIG. 14) and the amide (FIG. 15) protons lifetimes, τM^298, were determined by variable temperature ^1H NMR line width fitting. The chemically exchangeable bound water and amide protons have different dependence on pH. For bound water protons, the slowest exchange, i.e., largest τM^298, takes place at pH 7 (FIG. 14). Moreover, the pH dependence may be divided into two linear ranges: an acidic range where τM^298=68.6*pH−172.5; and a basic range where τM^298=−128.2*pH+1212.6, respectively. For the amide protons, the slowest exchange is at pH 5.5 (FIG. 15).

[4] = 1H NMR spectra of Ln(9)^3+ complexes, exchangeable amide protons
From the text: For certain Ln(9)^3+ complexes, for example, with Ln equal to Yb or Tm, the bound water molecules are ^1H NMR invisible probably due to the fast exchange between the bound water and the bulk water. […] Unfortunately, the NMR signal was invisible, probably due to its fast exchange with the bulk water. However, the eight exchangeable amide protons present as two resonance peaks with equivalent intensity, at −14.5 (Ha) and −17.7 (Hb) ppm, respectively, are visible.

[5] = Proton chemical shift of bound water of Ln(1)^3+ complexes relative to bulk water (1H NMR); conditions: relative to bulk water at 0 ppm
From the text: As further illustrated in Table 1, the proton chemical shifts of bound water in these lanthanide-macrocylic complexes, δ, relative to bulk water, at 0 ppm are generally highly shifted, either more than 6 ppm downfield or upfield (i.e., ±6 ppm or more), depending upon the properties of the central lanthanide ions. At 1.5 Tesla (T), a magnetic field strength presently used by many commercial MRI scanners, the exchange limit regimes, Δω•τM, of Eu(1)^3+, Tb(1)^3+, Dy(1)^3+, and Ho(1)^3+ are all greater than 1. At higher fields, however, such as 4.7 T and 11.75 T, more lanthanide complexes have exchange limit regimes greater than 1, with Δω•τM increasing as field strength increases. Therefore, favorable MT contrast effects are available for a broad range of lanthanide-macrocylic complexes over a broad range of magnetic field strengths. […]

[6] = Bound water lifetime τM^298 of Ln(1)^3+ complexes by fitting temperature dependent 17O NMR bound water line widths; exchange limit regime Δω•τM calculated; conditions: for τM (bound water lifetime): Ln(1)^3+ complexes, 298 K
Protocol: A first experiment, examined the life times at 298° K, τM^298, of water molecules bound to various lanthanide-macrocylic complexes of the present invention, and having the general formula, Ln(1)^3+, where the four pendent arms R, R′, R″ and R″′ are all ethyl-acetamidoacetate (i.e., LnDOTA-4AmCE^3+), as depicted below: [drawing 4]
(§1) Individual τM^298 values were obtained by fitting the temperature dependent ^17O NMR bound water line widths according to standard exchange theory. […] Because the bulk water ^17O resonance of Yb(1) solution was relatively narrow at all temperatures, no attempt was made to determine τM^298 for this complex based on the ^17O NMR line width data from bulk water. However, a fit to the bound-water ^1H NMR line width gave a τM^298 of 5.8 μs for Yb(1), consistent with the trend shown in FIG. 3. Moreover, ^1H NMR line width fitting gave very similar results for those systems for which the bound water is directly observable.
As further illustrated in Table 1, the proton chemical shifts of bound water in these lanthanide-macrocylic complexes, δ, relative to bulk water, at 0 ppm are generally highly shifted, either more than 6 ppm downfield or upfield (i.e., ±6 ppm or more), depending upon the properties of the central lanthanide ions. At 1.5 Tesla (T), a magnetic field strength presently used by many commercial MRI scanners, the exchange limit regimes, Δω•τM, of Eu(1)^3+, Tb(1)^3+, Dy(1)^3+, and Ho(1)^3+ are all greater than 1. At higher fields, however, such as 4.7 T and 11.75 T, more lanthanide complexes have exchange limit regimes greater than 1, with Δω•τM increasing as field strength increases. Therefore, favorable MT contrast effects are available for a broad range of lanthanide-macrocylic complexes over a broad range of magnetic field strengths.

[7] = τM^298 from fit to bound-water 1H NMR line width
From the text: as §1

[8] = MT MR imaging of vial phantom with Ln(1)^3+ complexes at 4.7 T; conditions: saturating bound water, 62.5 mM, neutral pH
Protocol: A third series of experiments was performed to examine the ability of lanthanide-macrocylic complexes of the general formula Ln(1)^3+ to enhance MRI contrast by MT. […] The inner vial contains 62.5 mM Eu(1)^3+ or Nd(1)^3+ at neutral pH, while the outer vial is pure water. T1-weighted spin-echo images (TR/TE=500/18 ms, 256×256 data matrix) were obtained at about 22° C. and a field strength of 4.7 T. MT was achieved by applying RF irradiation for 1 s, with a power of 16 db by using a 2.5 cm surface coil. […] The inner vial contains 62.5 mM Nd(1)^3+ at neutral pH, while the outer vial is pure water. The irradiation duration time was 2 s, with a power of 41 db by using a 2.5 cm surface coil.
These levels of contrast are much better than expected for diamagnetic CAs where the resonance signal of the NH or OH group undergoing chemical exchange is only a few ppm away from the resonance signal of bulk water.

[9] = MT profiles (Z-profiles, CEST profiles) of Ln(1)^3+ complexes at 4.7 T; conditions: for bound water position at which saturating RF pulse is directed: bulk water at 0 ppm, aqueous 62.5 mM, neutral pH, about 22° C.
Protocol: In a second experiment, MT profiles, also known as Z-profiles or CEST profiles, were obtained for lanthanide-macrocylic complexes of the general formula Ln(1)^3+. FIGS. 4-7 show representative spectra in the absence of saturation (bulk water peak at 0 ppm truncated to make the bound water peaks more visible) and MT profiles for Eu(1)^3+, Pr(1)^3+, Nd(1)^3+ and Yb(1)^3+ complexes, respectively, all measured at 4.7 T. All experiments were conducted using aqueous 62.5 mM Ln(1)^3+ adjusted to neutral pH and about 22° C., using an saturation duration time of 1 s, RF power of 16 db, and a 2.5 cm surface coil. […] Among these three complexes, Eu(1)^3+, shown in FIG. 4, had the greatest effect when the saturating pulse was centered at about 50 ppm (arrow): about a 60% decrease in the magnetization of bulk water, Ms, as compared to the magnetization of bulk water in the absence of a saturating pulse, Mo. Importantly, as indicated by a Ms/Mo of about 100%, when the counter-position (i.e., −50 ppm) was saturated, there was no distortion in the bulk water signal. Of course when the saturation pulse is directed to 0 ppm (arrow) there is no signal and therefore Ms/Mo is about 0%.

Structure (SMILES) | δ, proton chemical shift of bound water [5] [ppm] | Δω●τM (exchange limit regime) ([6]; 1.5 T) | Δω●τM (exchange limit regime) ([6]; 4.7 T) | Δω●τM (exchange limit regime) ([6]; 11.75 T) | τM (bound water lifetime) [6] [μs] | other results
O=C([O-])CNC(=O)CN1CCN(CC(=O)NCC(=O)[O-])CCN(CC(=O)NCC(=O)[O-])CCN(CC(=O)NCC(=O)[O-])CC1.[Eu+3] [Eu(2)^−, LnDOTA-4AmC^−] | – | – | – | – | – | chemical shift of Eu^3+-bound water [1]: about 57 ppm; chemical shift of four equivalent amide protons on the pendent arms [1]: about −6 ppm; optimal Δω•τM for largest MT [2]: about 15; pH of slowest exchange (largest τM^298), bound water protons [3]: 7; pH of slowest exchange, amide protons [3]: 5.5; exchange limiting regimes (Δω•τM), bound water and amide protons ([3]; magnetic field strength of 4.7): > 1
NC(=O)CN1CCN(CC(N)=O)CCN(CC(N)=O)CCN(CC(N)=O)CC1.[Tm+3] [Tm(9)^3+] | – | – | – | – | – | chemical shift of amide protons, first set (Ha) [4]: −42 ppm; chemical shift of amide protons, second set (Hb) [4]: −52 ppm
CCOC(=O)CNC(=O)CN1CCN(CC(=O)NCC(=O)OCC)CCN(CC(=O)NCC(=O)OCC)CCN(CC(=O)NCC(=O)OCC)CC1.[Er+3] [Er(1)^3+] | 200 | 0.7 | 2.3 | 5.7 | 9 | –
CCOC(=O)CNC(=O)CN1CCN(CC(=O)NCC(=O)OCC)CCN(CC(=O)NCC(=O)OCC)CCN(CC(=O)NCC(=O)OCC)CC1.[Sm+3] [Sm(1)^3+] | −4 | 0.5 | 1.6 | 4.0 | 320 | –
CCOC(=O)CNC(=O)CN1CCN(CC(=O)NCC(=O)OCC)CCN(CC(=O)NCC(=O)OCC)CCN(CC(=O)NCC(=O)OCC)CC1.[Tm+3] [Tm(1)^3+] | 500 | 0.6 | 1.9 | 4.7 | 3 | –
CCOC(=O)CNC(=O)CN1CCN(CC(=O)NCC(=O)OCC)CCN(CC(=O)NCC(=O)OCC)CCN(CC(=O)NCC(=O)OCC)CC1.[Yb+3] [Yb(1)^3+] | 200 | 0.2 | 0.5 | 1.9 | 3 | τM^298 of bound water [7]: 5.8 μs
CCOC(=O)CNC(=O)CN1CCN(CC(=O)NCC(=O)OCC)CCN(CC(=O)NCC(=O)OCC)CCN(CC(=O)NCC(=O)OCC)CC1.[Eu+3] [Eu(1)^3+] | 50 | – | 24.0 | 60.0 | 382 | decrease in the bulk water signal in the inner vials (MT images) [8]: ~80%; Δω●τM (exchange limit regime) ([6]; 1.5 T, listed as Eu^3+): 7.7; bound water position at which saturating RF pulse is directed [9]: +50 ppm; decrease in the magnetization of bulk water, Ms, compared to Mo ([9]; saturating pulse at about 50 ppm, 62.5 mM, 1 s, 16 db): ~60%; Ms/Mo when counter-position saturated ([9]; saturation at −50 ppm, 62.5 mM): about 100%
CCOC(=O)CNC(=O)CN1CCN(CC(=O)NCC(=O)OCC)CCN(CC(=O)NCC(=O)OCC)CCN(CC(=O)NCC(=O)OCC)CC1.[Nd+3] [Nd(1)^3+] | −32 | 1.0 | 3.2 | 8.0 | 80 | decrease in the bulk water signal in the inner vials (MT images) [8]: ~80%
CCOC(=O)CNC(=O)CN1CCN(CC(=O)NCC(=O)OCC)CCN(CC(=O)NCC(=O)OCC)CCN(CC(=O)NCC(=O)OCC)CC1.[Ho+3] [Ho(1)^3+] | −360 | – | 8.6 | 21.5 | 19 | Δω●τM (exchange limit regime) ([6]; 1.5 T, listed as Ho^3+): 2.8
CCOC(=O)CNC(=O)CN1CCN(CC(=O)NCC(=O)OCC)CCN(CC(=O)NCC(=O)OCC)CCN(CC(=O)NCC(=O)OCC)CC1.[Tb+3] [Tb(1)^3+] | −600 | – | 23.4 | 58.5 | 31 | Δω●τM (exchange limit regime) ([6]; 1.5 T, listed as Tb^3+): 7.5
CCOC(=O)CNC(=O)CN1CCN(CC(=O)NCC(=O)OCC)CCN(CC(=O)NCC(=O)OCC)CCN(CC(=O)NCC(=O)OCC)CC1.[Pr+3] [Pr(1)^3+] | −60 | 0.5 | 1.5 | 3.8 | 20 | bound water position at which saturating RF pulse is directed [9]: −45 ppm
CCOC(=O)CNC(=O)CN1CCN(CC(=O)NCC(=O)OCC)CCN(CC(=O)NCC(=O)OCC)CCN(CC(=O)NCC(=O)OCC)CC1.[Dy+3] [Dy(1)^3+] | −720 | – | 15.4 | 38.5 | 17 | Δω●τM (exchange limit regime) ([6]; 1.5 T, listed as Dy^3+): 4.9
